# Assays:
# Test in all cases: UV/vis and transient absorption of co-purified protein-bound FAD
# Type in all cases: binding
# Settings in all cases: pH 8.0, 10 mM Tris-HCl, 100 mM NaCl, 10% glycerol, 7 °C; oxidized FAD; free FAD removed by size-exclusion column
# [1] = target: T1, MmCPDII (class II CPD photolyase) (Methanosarcina mazei, UniProt Q8PYK9, W388F)
# T1 construct: gene MM_0852; full-length from pET-28a-MmCPDII, E. coli BL21-Gold(DE3), NiNTA and SEC
# [2] = target: T2, MmCPDII (class II CPD photolyase) (Methanosarcina mazei, UniProt Q8PYK9, Y345F)
# T2 construct: gene MM_0852; full-length from pET-28a-MmCPDII, E. coli BL21-Gold(DE3), NiNTA and SEC
# [3] = target: T3, MmCPDII (class II CPD photolyase) (Methanosarcina mazei, UniProt Q8PYK9)
# T3 construct: gene MM_0852; full-length from pET-28a-MmCPDII, E. coli BL21-Gold(DE3), NiNTA and SEC
# [4] = target: T4, MmCPDII (class II CPD photolyase) (Methanosarcina mazei, UniProt Q8PYK9, E387Q)
# T4 construct: gene MM_0852; full-length from pET-28a-MmCPDII, E. coli BL21-Gold(DE3), NiNTA and SEC
structure (smiles),measurement,setting,value
Cc1cc2nc3c(=O)[nH]c(=O)nc-3n(C[C@H](O)[C@H](O)[C@H](O)COP(=O)(O)OP(=O)(O)OC[C@H]3O[C@@H](n4cnc5c(N)ncnc54)[C@H](O)[C@@H]3O)c2cc1C [FAD],UV/vis and transient absorption of co-purified protein-bound FAD,[1],"Isolated MmCPDII photolyase (WT, as well as all mutants studied here) contains a fully oxidized FAD"
same,UV/vis and transient absorption of co-purified protein-bound FAD,[2],"Isolated MmCPDII photolyase (WT, as well as all mutants studied here) contains a fully oxidized FAD"
same,UV/vis and transient absorption of co-purified protein-bound FAD,[3],"Isolated MmCPDII photolyase (WT, as well as all mutants studied here) contains a fully oxidized FAD"
same,UV/vis and transient absorption of co-purified protein-bound FAD,[4],"Isolated MmCPDII photolyase (WT, as well as all mutants studied here) contains a fully oxidized FAD"

# — article PMC5885780, “Sub-nanosecond tryptophan radical deprotonation mediated by a protein-bound water cluster in class II DNA photolyases” (Chemical Science, 2017)
